From US20230339968A1, “KRAS Gl2C INHIBITORS” (Eli Lilly and Company, priority 2019, published 2023)
pIC50: −log10 of the molar value. Read-outs that look alike come from different tables or passages of the source.

Experiments:
[1] = tested on: H1373 (lung); test: CellTiterGlo Cell Proliferation Assay (2D), H1373; assay type: cell-based; conditions: Homo sapiens, NCI-H1373, 96 hours
Procedure: (§1) The purpose of this assay is to evaluate the growth of KRas G12C mutant tumor lines following treatment with a test compound. A panel of tumor cell lines harboring KRas G12C or other KRas mutations are collected (Table 25). All cell lines are from ATCC or other sources indicated.
(§2) Typically cells are cultured in RPMI1640 or Dulbecco's modified Eagle's medium (DMEM, GIBCO) supplemented with 10% FBS (GIBCO, Invitrogen). […] The cells are treated with compound for 96 hours, and then are analyzed for viability using the CellTiterGlo® Luminescent Cell Viability Assay® (Promega #G7572 for 2D) according to manufacturer's instructions and an EnVision™ plate reader. Nonlinear regression and sigmoidal dose-response curves are used to calculate the half maximal inhibitory concentration (IC50) with GraphPad Prism 4® software.

[2] = tested on: SW837 (rectum); test: CellTiterGlo Cell Proliferation Assay (2D), SW837; assay type: cell-based; conditions: Homo sapiens, 96 hours
Procedure: as §1, §2

[3] = tested on: H2030 (lung); test: CellTiterGlo Cell Proliferation Assay (2D), H2030; assay type: cell-based; conditions: Homo sapiens, NCI-H2030, 96 hours
Procedure: as §1, §2

[4] = tested on: KYSE-410 (esoph); test: CellTiterGlo Cell Proliferation Assay (2D), KYSE-410; assay type: cell-based; conditions: Homo sapiens, 96 hours
Procedure: as §1, §2

[5] = tested on: Calu-1 (lung); test: CellTiterGlo Cell Proliferation Assay (2D), Calu-1; assay type: cell-based; conditions: Homo sapiens, 96 hours
Procedure: as §1, §2

[6] = tested on: SW756 (cervix); test: CellTiterGlo Cell Proliferation Assay (2D), SW756; assay type: cell-based; conditions: Homo sapiens, 96 hours
Procedure: as §1, §2

[7] = tested on: A549 (lung); test: CellTiterGlo Cell Proliferation Assay (2D), A549 (KRas G12S); assay type: cell-based; conditions: Homo sapiens; for inhibition at 10 µM: read-out: % inh. @ 10 μM
Procedure: as §1, §2

[8] = tested on: HCC44 (lung); test: CellTiterGlo Cell Proliferation Assay (2D), HCC44; assay type: cell-based; conditions: Homo sapiens, 96 hours
Procedure: as §1, §2

[9] = target: active KRas (Homo sapiens, UniProt P01116, G12C); test: In vivo target inhibition, active KRas ELISA of tumor lysates, lung cancer H358 xenograft model; parameters: from tissue; host or cells: H358 xenograft tumours grown subcutaneously in nude female mice; conditions: NCI-H358, mouse; for inhibition at 12.5 mg/kg / inhibition at 25 mg/kg / inhibition at 50 mg/kg / inhibition at 100 mg/kg: po
Procedure: The purpose of these assays is to evaluate in vivo target inhibition of an orally administered test compound. Human lung cancer H358 cells, or pancreatic cancer MiaPaca-2 cells, are implanted into nude mice xenograft tumor models. H358 or MiaPaca-2 cells (10×106 in a 1:1 Matrigel® mix, 0.2 mL total volume) are implanted by subcutaneous injection in hind leg of nude female mice (Harlan Laboratories). […] Treatment is initiated with oral administration (gavage) of a test compound or vehicle (20% Captisol®, 25 mM phosphate, pH 2.0 in 0.2 mL) when the tumor size reaches approximately 300 mg.
For in vivo target inhibition and PD analysis, tumors are ground by mortar and pestle on dry ice and tumor fragments are added to 800 μL of lysis buffer containing 1% Triton™ X-100, 25 mM Tris pH7.5, 150 mM sodium chloride, 1 mM EDTA, and 1 mM EGTA with Halt protease and phosphatase inhibitor cocktail (Thermo Scientific, cat. no. 1861281) in lysing matrix D tubes (MP Biomedical®, cat. no. 6913-500) with one additional large bead (MP Biomedical® ¼″ ceramic sphere bead cat. no. 6540-412) per tube. Tumor fragments are homogenized in a Thermo Bio101® fast prep (FP120) at setting 4 for […] while cold for a total of 2 times. Lysates are spun at 14,000 rpm for 10 minutes at 4° C. to clarify. Protein estimation is done on the lysate supernatant using a BioRad Dc® protein assay and lysates are diluted in complete lysis/binding buffer from the Ras GTPase Chemi ELISA Kit® (Active Motif, cat. no. 52097). The active KRas ELISA is performed as follows: glutathione-coated ELISA wells are incubated with diluted RAF1-GST in complete lysis/binding buffer for 1 hour at 4° C. with gentle agitation. Wells are washed 3 times with wash buffer and 100 μg of lysates are added to each well and incubated at ambient temperature for 1 hour with mild agitation. The wells are washed an additional 3 times, then primary antibody, diluted in antibody binding buffer, is added to each well. The plates are incubated for 1 hour. The wells are washed 3 more times before adding HRP-conjugated secondary antibody, diluted in antibody binding buffer, to each well. The plates are incubated at ambient temperature for 1 hour. ELISA wells are washed 4 times, chemiluminescent reagent is added and then luminescence is read. For pERK Meso Scale Discovery ELISA, 25 μg of protein containing 0.1% SDS is used; Meso Scale Discovery Whole Cell Lysate Kit for pERK is provided by Meso Scale Discovery.
The purpose of this assay is to evaluate the dose dependent in vivo target inhibition and pharmacodynamic effects in a lung cancer model. The test compound is dosed in lung cancer H358 mouse xenograft model at a dose range from 12.5 to 100 mg/kg. The tumor samples are collected 8 hours post a single dose. The tumor lysates are prepared and the inhibition of pERKand active KRas is measured as described above.
The purpose of this assay is to evaluate the time dependent in vivo target inhibition and pharmacodynamic effects in a lung cancer model. […] After a single dose, the tumor samples are harvested at 2, 4, 8, 12 and 24 hour post doing. The tumor lysates are prepared and the inhibition of pERK and active KRas is measured as described above.

[10] = A549 (lung, KRas G12S), 2D, 96 hours
[11] = A549 (lung, KRas G12S), 2D, 96 hours, 10 μM

Sequence of active KRas (P01116 1-188 isoform P01116-2 G12C): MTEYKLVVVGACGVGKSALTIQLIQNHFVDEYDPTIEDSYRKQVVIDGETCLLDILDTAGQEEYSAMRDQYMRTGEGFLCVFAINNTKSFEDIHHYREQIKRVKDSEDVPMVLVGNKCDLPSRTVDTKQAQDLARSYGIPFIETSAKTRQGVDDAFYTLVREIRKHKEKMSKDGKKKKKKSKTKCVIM

| pIC50 [1] | pIC50 [2] | pIC50 [3] | pIC50 [5] | pIC50 [6] | pIC50 [7, 10] | pIC50 [8] | SMILES | inhibition at 10 µM [1] | inhibition at 10 µM [2] | inhibition at 10 µM [3] | pIC50 [4] | inhibition at 10 µM [4] | inhibition at 10 µM [5] | inhibition at 10 µM [6] | inhibition at 10 µM [8] | inhibition at 10 µM [7, 11] | other results |
| --- | --- | --- | --- | --- | --- | --- | --- | --- | --- | --- | --- | --- | --- | --- | --- | --- | --- |
| 5.74 | 6.60 | < 5.00 | < 5.00 | 5.79 | < 5.00 | < 5.00 | C=CC(=O)N1CCN2C(=O)c3cc(Cl)c(-c4ccc(F)c5sc(N)nc45)c(Cl)c3OCC[C@H]2C1 (atropisomer, axis not shown) [Example 1, (13aS)-9-(2-Amino-7-fluoro-1,3-benzothiazol-4-yl)-8,10-dichloro-2-prop-2-enoyl-1,3,4,12,13,13a-hexahydropyrazino[2,1-d][1,5]benzoxazocin-6-one] | 68.8% | 60.8% | 32.9% | 5.23 | 64.6% | 45.4% | 51.9% | 46.4% | 19.1% | – |
| 5.26 | 6.24 | < 5.00 | 5.53 | 5.60 | 5.02 | 5.55 | C=CC(=O)N1CCN2C(=O)c3cc(F)c(-c4ccc(F)c5sc(N)c(C#N)c45)c(Cl)c3OC[C@H]2C1 [Example 36, 4-[(4aR)-7-Chloro-9-fluoro-11-oxo-3-prop-2-enoyl-2,4,4a,5-tetrahydro-1H-pyrazino[2,1-c][1,4]benzoxazepine-8-yl]-2-amino-7-fluoro-benzothiophene-3-carbonitrile] | 82.6% | 58.7% | 55.8% | < 5.00 | 43.1% | 77.4% | 58.1% | 80.6% | 62.1% | inhibition at 30 mg/kg ([9]; H358 model, single dose 30 mg/kg, 2 h, read-out: % Inhibition of Active Ras): 72.6%; inhibition at 30 mg/kg ([9]; H358 model, single dose 30 mg/kg, 4 h, read-out: % Inhibition of Active Ras): 72.4%; inhibition at 30 mg/kg ([9]; H358 model, single dose 30 mg/kg, 8 h, read-out: % Inhibition of Active Ras): 88.5%; inhibition at 30 mg/kg ([9]; H358 model, single dose 30 mg/kg, 24 h, read-out: % Inhibition of Active Ras): 43.2% |
| 5.17 | 6.70 | < 5.00 | 5.94 | 5.97 | < 5.00 | < 5.00 | C=CC(=O)N1CCN2C(=O)c3cc(F)c(-c4cccc5sc(N)c(C#N)c45)c(Cl)c3OCC[C@H]2C1 [Example 34, 4-[(13aS)-10-Chloro-8-fluoro-6-oxo-2-prop-2-enoyl-1,3,4,12,13,13a-hexahydropyrazino[2,1-d][1,5]benzoxazocin-9-yl]-2-amino-benzothiophene-3-carbonitrile] | 67.7% | 59.6% | 41.1% | < 5.00 | 63.2% | 50.6% | 56.9% | 41% | 18.8% | inhibition at 12.5 mg/kg ([9]; H358 xenograft mice, single oral dose 12.5 mg/kg, 8 hours, read-out: % Inhibition Active RAS): 14.2%; inhibition at 25 mg/kg ([9]; H358 xenograft mice, single oral dose 25 mg/kg, 8 hours, read-out: % Inhibition Active RAS): 35.1%; inhibition at 50 mg/kg ([9]; H358 xenograft mice, single oral dose 50 mg/kg, 8 hours, read-out: % Inhibition Active RAS): 31.5%; inhibition at 100 mg/kg ([9]; H358 xenograft mice, single oral dose 100 mg/kg, 8 hours, read-out: % Inhibition Active RAS): 69.3% |

| SMILES | pIC50 [1] | pIC50 [2] | pIC50 [3] | pIC50 [5] | pIC50 [6] | pIC50 [7, 10] | pIC50 [8] | inhibition at 10 µM [1] | inhibition at 10 µM [2] | inhibition at 10 µM [3] | pIC50 [4] | inhibition at 10 µM [4] | inhibition at 10 µM [5] | inhibition at 10 µM [6] | inhibition at 10 µM [8] | inhibition at 10 µM [7, 11] | other results |
| --- | --- | --- | --- | --- | --- | --- | --- | --- | --- | --- | --- | --- | --- | --- | --- | --- | --- |
| C=CC(=O)N1CCN2C(=O)c3cc(F)c(-c4ccc(F)c5sc(N)c(C#N)c45)c(Cl)c3OCC[C@H]2C1 [Example 35, 4-[(13aS)-10-Chloro-8-fluoro-6-oxo-2-prop-2-enoyl-1,3,4,12,13,13a-hexahydropyrazino[2,1-d][1,5]benzoxazocin-9-yl]-2-amino-7-fluoro-benzothiophene-3-carbonitrile] | 5.45 | 6.48 | < 5.00 | 6.32 | 5.81 | < 5.00 | 5.65 | 86.3% | 64.2% | 40.3% | 5.10 | 68.3% | 56% | 56.7% | 64.3% | – | inhibition at 10 µM ([7]; A549, 96 h): 31.6%; inhibition at 12.5 mg/kg ([9]; read-out: % Inhibition Active RAS, H358 xenograft mice, single oral dose 12.5 mg/kg, 8 hours): 81%; inhibition at 25 mg/kg ([9]; read-out: % Inhibition Active RAS, H358 xenograft mice, single oral dose 25 mg/kg, 8 hours): 73.4%; inhibition at 50 mg/kg ([9]; read-out: % Inhibition Active RAS, H358 xenograft mice, single oral dose 50 mg/kg, 8 hours): 94%; inhibition at 100 mg/kg ([9]; read-out: % Inhibition Active RAS, H358 xenograft mice, single oral dose 100 mg/kg, 8 hours): 91.9%; inhibition at 30 mg/kg ([9]; read-out: % Inhibition of Active Ras, H358 model, single dose 30 mg/kg, 2 h): 7.6%; inhibition at 30 mg/kg ([9]; read-out: % Inhibition of Active Ras, H358 model, single dose 30 mg/kg, 4 h): 65.7%; inhibition at 30 mg/kg ([9]; read-out: % Inhibition of Active Ras, H358 model, single dose 30 mg/kg, 8 h): 80.2%; inhibition at 30 mg/kg ([9]; read-out: % Inhibition of Active Ras, H358 model, single dose 30 mg/kg, 12 h): 39.3%; inhibition at 30 mg/kg ([9]; read-out: % Inhibition of Active Ras, H358 model, single dose 30 mg/kg, 24 h): 54.9% |
